pEC50, pIC50, pKd: −log10 of the molar value. Active and inactive are the calls of the source. The rule behind the calls is not given here.
Assays:
[1] = biological target: T1, Serine/threonine-protein kinase B-raf (Homo sapiens, UniProt P15056, V600E); test: Inhibition of B-Raf V600E mutant (unknown origin) assessed as inhibition of phosphorylation of peptide substrate
[2] = biological target: T1, Serine/threonine-protein kinase B-raf; test: Binding affinity to B-Raf V600E mutant (unknown origin)
[3] = biological target: T2, Serine/threonine-protein kinase B-raf (Homo sapiens, UniProt P15056); test: Binding affinity to wild type B-Raf (unknown origin)
Target sequence in this assay (P15056 whole entry): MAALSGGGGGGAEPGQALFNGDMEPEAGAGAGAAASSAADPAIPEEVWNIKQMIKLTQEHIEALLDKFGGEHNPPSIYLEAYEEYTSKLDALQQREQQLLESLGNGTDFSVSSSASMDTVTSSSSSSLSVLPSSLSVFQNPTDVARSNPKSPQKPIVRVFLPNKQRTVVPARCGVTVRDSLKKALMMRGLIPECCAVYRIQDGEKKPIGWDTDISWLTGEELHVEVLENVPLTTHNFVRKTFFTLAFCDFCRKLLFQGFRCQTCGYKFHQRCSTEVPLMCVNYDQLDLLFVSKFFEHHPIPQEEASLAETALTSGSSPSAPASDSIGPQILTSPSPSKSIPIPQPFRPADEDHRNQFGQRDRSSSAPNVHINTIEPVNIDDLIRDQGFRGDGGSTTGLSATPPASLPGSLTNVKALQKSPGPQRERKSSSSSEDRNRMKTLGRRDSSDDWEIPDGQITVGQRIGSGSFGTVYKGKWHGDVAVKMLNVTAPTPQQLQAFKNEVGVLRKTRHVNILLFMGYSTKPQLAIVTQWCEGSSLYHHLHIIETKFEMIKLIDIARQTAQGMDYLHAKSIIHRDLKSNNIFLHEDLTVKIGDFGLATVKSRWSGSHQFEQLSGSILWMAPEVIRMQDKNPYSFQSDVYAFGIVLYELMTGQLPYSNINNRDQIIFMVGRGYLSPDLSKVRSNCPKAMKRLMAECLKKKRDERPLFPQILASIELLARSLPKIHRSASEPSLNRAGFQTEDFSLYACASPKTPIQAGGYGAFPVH

[4] = biological target: T1, Serine/threonine-protein kinase B-raf; test: Inhibition of B-Raf V600E mutant in human A375 cells assessed as phosphorylation of ERK; type: cell-based, A-375
A-375 = test: Inhibition of cell proliferation in human A375 cells expressing B-Raf V600E mutant after 96 hrs by MTT assay; type: functional, cell-based
SW-620 = test: Inhibition of cell proliferation in human SW620 cells expressing wild type B-Raf after 96 hrs by MTT assay; type: functional, cell-based
[5] = biological target: T2, Serine/threonine-protein kinase B-raf; test: Inhibition of phosphorylation of MEK level in human SW620 cells expressing wild type B-Raf at 3 microM after 48 hrs by immunoblotting analysis; type: cell-based; details: SW-620
Target sequence in this assay (P15056 whole entry): as above

[6] = biological target: T2, Serine/threonine-protein kinase B-raf; test: Inhibition of phosphorylation of ERK level in human SW620 cells expressing wild type B-Raf at 3 microM after 48 hrs by immunoblotting analysis; type: cell-based; details: SW-620
Target sequence in this assay (P15056 whole entry): as above

[7] = biological target: T2, Serine/threonine-protein kinase B-raf; test: Binding affinity to recombinant human full-length wild type B-Raf (unknown origin) assessed as SPQKPIVR accessible protease cleavage peptide level by LC-MS/MS analysis relative to control
Target sequence in this assay (P15056 whole entry): as above

[8] = biological target: T2, Serine/threonine-protein kinase B-raf; test: Binding affinity to recombinant human full-length wild type B-Raf (unknown origin) assessed as VFLPNK accessible protease cleavage peptide level by LC-MS/MS analysis relative to control
Target sequence in this assay (P15056 whole entry): as above

[9] = biological target: T2, Serine/threonine-protein kinase B-raf; test: Binding affinity to recombinant human full-length wild type B-Raf (unknown origin) assessed as 7VVPAR accessible protease cleavage peptide level by LC-MS/MS analysis relative to control; also: test concentration or dose not given here
Target sequence in this assay (P15056 whole entry): as above

[10] = biological target: T2, Serine/threonine-protein kinase B-raf; test: Activation of tumorigenic wild type B-Raf in human IPC-298 cells with Ras mutation assessed as phosphorylation of ERK; type: cell-based
Target sequence in this assay (P15056 2-766 limits assumed, stated change not applied): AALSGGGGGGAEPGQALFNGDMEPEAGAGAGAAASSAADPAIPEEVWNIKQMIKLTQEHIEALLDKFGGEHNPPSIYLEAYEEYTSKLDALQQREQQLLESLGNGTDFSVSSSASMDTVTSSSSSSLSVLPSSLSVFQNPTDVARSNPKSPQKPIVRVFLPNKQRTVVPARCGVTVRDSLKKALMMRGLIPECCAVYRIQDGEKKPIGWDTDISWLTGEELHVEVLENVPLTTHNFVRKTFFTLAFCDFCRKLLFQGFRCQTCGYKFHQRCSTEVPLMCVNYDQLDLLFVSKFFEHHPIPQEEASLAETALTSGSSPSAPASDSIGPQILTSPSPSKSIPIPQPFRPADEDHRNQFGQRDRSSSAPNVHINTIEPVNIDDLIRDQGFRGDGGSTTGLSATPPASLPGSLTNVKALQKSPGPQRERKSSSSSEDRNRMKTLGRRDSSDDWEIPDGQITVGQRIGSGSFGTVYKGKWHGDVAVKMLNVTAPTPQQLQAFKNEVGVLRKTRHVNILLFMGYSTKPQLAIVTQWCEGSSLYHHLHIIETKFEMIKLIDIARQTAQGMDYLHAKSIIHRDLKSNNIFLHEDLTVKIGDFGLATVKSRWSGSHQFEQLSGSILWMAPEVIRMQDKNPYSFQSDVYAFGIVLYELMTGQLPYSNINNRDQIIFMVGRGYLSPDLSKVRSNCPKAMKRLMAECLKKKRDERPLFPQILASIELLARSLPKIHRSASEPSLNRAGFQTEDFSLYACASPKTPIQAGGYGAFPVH

[11] = biological target: T2, Serine/threonine-protein kinase B-raf; test: Binding affinity to recombinant human full-length wild type B-Raf (unknown origin) assessed as DSLKK accessible protease cleavage peptide level by LC-MS/MS analysis relative to control
[12] = biological target: T2, Serine/threonine-protein kinase B-raf; test: Binding affinity to recombinant human full-length wild type B-Raf (unknown origin) assessed as SIPIPQPFRPADEDHR accessible protease cleavage peptide level by LC-MS/MS analysis relative to control; also: test concentration or dose not given here
[13] = biological target: T2, Serine/threonine-protein kinase B-raf; test: Binding affinity to recombinant human full-length wild type B-Raf (unknown origin) assessed as GDGGSTTGLSATPPASLPGSLTNVK accessible protease cleavage peptide level by LC-MS/MS analysis relative to control
[14] = biological target: T2, Serine/threonine-protein kinase B-raf; test: Binding affinity to recombinant human full-length wild type B-Raf (unknown origin) assessed as DSSDDWEIPDGQITVGQR accessible protease cleavage peptide level by LC-MS/MS analysis relative to control; also: test concentration or dose not given here
[15] = biological target: T2, Serine/threonine-protein kinase B-raf; test: Binding affinity to recombinant human full-length wild type B-Raf (unknown origin) assessed as IGSGSFGTVYK accessible protease cleavage peptide level by LC-MS/MS analysis relative to control
[16] = biological target: T2, Serine/threonine-protein kinase B-raf; test: Binding affinity to recombinant human full-length wild type B-Raf (unknown origin) assessed as WHGDVAVK accessible protease cleavage peptide level by LC-MS/MS analysis relative to control
[17] = biological target: T2, Serine/threonine-protein kinase B-raf; test: Binding affinity to recombinant human full-length wild type B-Raf (unknown origin) assessed as NEVGVLR accessible protease cleavage peptide level by LC-MS/MS analysis relative to control
[18] = biological target: T2, Serine/threonine-protein kinase B-raf; test: Binding affinity to recombinant human full-length wild type B-Raf (unknown origin) assessed as LIDIAR accessible protease cleavage peptide level by LC-MS/MS analysis relative to control; also: test concentration or dose not given here
[19] = biological target: T2, Serine/threonine-protein kinase B-raf; test: Binding affinity to recombinant human full-length wild type B-Raf (unknown origin) assessed as QTAQGMDYLHAK accessible protease cleavage peptide level by LC-MS/MS analysis relative to control
[20] = biological target: T2, Serine/threonine-protein kinase B-raf; test: Binding affinity to recombinant human full-length wild type B-Raf (unknown origin) assessed as SIIHRDLK accessible protease cleavage peptide level by LC-MS/MS analysis relative to control
[21] = biological target: T2, Serine/threonine-protein kinase B-raf; test: Binding affinity to recombinant human full-length wild type B-Raf (unknown origin) assessed as SNNIFLHEDLTVK accessible protease cleavage peptide level by LC-MS/MS analysis relative to control; also: test concentration or dose not given here
[22] = biological target: T2, Serine/threonine-protein kinase B-raf; test: Binding affinity to recombinant human full-length wild type B-Raf (unknown origin) assessed as IGDFGLATVK accessible protease cleavage peptide level by LC-MS/MS analysis relative to control
[23] = biological target: T2, Serine/threonine-protein kinase B-raf; test: Binding affinity to recombinant human full-length wild type B-Raf (unknown origin) assessed as DQIIFMVGR accessible protease cleavage peptide level by LC-MS/MS analysis relative to control
[24] = biological target: T2, Serine/threonine-protein kinase B-raf; test: Binding affinity to recombinant human full-length wild type B-Raf (unknown origin) assessed as GYLSPDLSK accessible protease cleavage peptide level by LC-MS/MS analysis relative to control
[25] = biological target: T2, Serine/threonine-protein kinase B-raf; test: Binding affinity to recombinant human full-length wild type B-Raf (unknown origin) assessed as SASEPSLNR accessible protease cleavage peptide level by LC-MS/MS analysis relative to control
[26] = biological target: T2, Serine/threonine-protein kinase B-raf; test: Binding affinity to recombinant human full-length wild type B-Raf (unknown origin) assessed as TPIQAGGYGAFPVH accessible protease cleavage peptide level by LC-MS/MS analysis relative to control; also: test concentration or dose not given here

T1 sequence (P15056 2-766 V600E limits assumed): as the sequence (P15056 2-766 limits assumed, stated change not applied) above, with V599E counted along it

**Q.** `CCN(C)S(=O)(=O)Nc1ccc(F)c(C(=O)c2c[nH]c3ncc(Cl)cc23)c1F` was tested. Which pIC50 [1] did it give?
**A.** Its pIC50 is greater than 7.00.

**Q.** And the pKd [2]?
**A.** Its pKd is 6.26.

**Q.** What about the pKd [3] of the same compound?
**A.** Its pKd is 6.40.

**Q.** And the pIC50 [4]?
**A.** Its pIC50 is greater than 6.00.

**Q.** And the inhibition (A-375)?
**A.** The inhibition was “Active”.

**Q.** And the inhibition (SW-620)?
**A.** The inhibition was “inactive”.

**Q.** What about the inhibition [5] of the same compound?
**A.** Its inhibition is “Active”.

**Q.** And the inhibition [6]?
**A.** The inhibition was “Active”.

**Q.** What about the Ratio [7] of the same compound?
**A.** Its Ratio is 1.11.

**Q.** What about the Ratio [8] of the same compound?
**A.** The Ratio was 1.01.

**Q.** And the Ratio [9]?
**A.** The Ratio was 1.26.

**Q.** And the pEC50 [10]?
**A.** The pEC50 was less than 5.00.

**Q.** What about the Ratio [11] of the same compound?
**A.** The Ratio was 1.71.

**Q.** What about the Ratio [12] of the same compound?
**A.** Its Ratio is 1.45.

**Q.** And the Ratio [13]?
**A.** The Ratio was 1.55.

**Q.** And the Ratio [14]?
**A.** Its Ratio is 0.56.

**Q.** And the Ratio [15]?
**A.** The Ratio was 0.62.

**Q.** What about the Ratio [16] of the same compound?
**A.** Its Ratio is 0.5.

**Q.** And the Ratio [17]?
**A.** Its Ratio is 0.37.

**Q.** And the Ratio [18]?
**A.** Its Ratio is 0.5.

**Q.** What about the Ratio [19] of the same compound?
**A.** The Ratio was 0.9.

**Q.** What about the Ratio [20] of the same compound?
**A.** The Ratio was 0.47.

**Q.** And the Ratio [21]?
**A.** Its Ratio is 0.21.

**Q.** What about the Ratio [22] of the same compound?
**A.** Its Ratio is 0.53.

**Q.** What about the Ratio [23] of the same compound?
**A.** Its Ratio is 0.83.

**Q.** What about the Ratio [24] of the same compound?
**A.** Its Ratio is 0.91.

**Q.** And the Ratio [25]?
**A.** Its Ratio is 1.8.

**Q.** What about the Ratio [26] of the same compound?
**A.** Its Ratio is 1.42.

**Q.** Which Ratio [7] does the source give for `Nc1ncnc2c1ncn2[C@@H]1O[C@H](COP(=O)(O)OP(=O)(O)O)[C@@H](O)[C@H]1O` here?
**A.** Its Ratio is 1.14.

**Q.** And the Ratio [8]?
**A.** Its Ratio is 1.24.

**Q.** What about the Ratio [9] of the same compound?
**A.** The Ratio was 1.21.

**Q.** What about the Ratio [11] of the same compound?
**A.** Its Ratio is 1.34.

**Q.** What about the Ratio [12] of the same compound?
**A.** The Ratio was 1.34.

**Q.** And the Ratio [13]?
**A.** Its Ratio is 1.28.

**Q.** And the Ratio [14]?
**A.** The Ratio was 0.83.

**Q.** And the Ratio [15]?
**A.** The Ratio was 1.18.

**Q.** And the Ratio [16]?
**A.** Its Ratio is 0.99.

**Q.** What about the Ratio [17] of the same compound?
**A.** Its Ratio is 1.13.

**Q.** What about the Ratio [18] of the same compound?
**A.** Its Ratio is 0.86.

**Q.** What about the Ratio [19] of the same compound?
**A.** The Ratio was 1.22.

**Q.** What about the Ratio [20] of the same compound?
**A.** Its Ratio is 0.32.

**Q.** What about the Ratio [21] of the same compound?
**A.** The Ratio was 1.9.

**Q.** What about the Ratio [22] of the same compound?
**A.** The Ratio was 1.3.

**Q.** What about the Ratio [23] of the same compound?
**A.** The Ratio was 1.36.

**Q.** What about the Ratio [24] of the same compound?
**A.** Its Ratio is 1.27.

**Q.** And the Ratio [25]?
**A.** Its Ratio is 1.04.

**Q.** What about the Ratio [26] of the same compound?
**A.** Its Ratio is 1.42.

**Q.** With `Nc1ncnc2c1ncn2[C@@H]1O[C@H](COP(=O)(O)OP(=O)(O)NP(=O)(O)O)[C@@H](O)[C@H]1O` as the compound, how does the Ratio [7] read?
**A.** Its Ratio is 0.83.

**Q.** What about the Ratio [8] of the same compound?
**A.** Its Ratio is 0.91.

**Q.** And the Ratio [9]?
**A.** Its Ratio is 0.89.

**Q.** What about the Ratio [11] of the same compound?
**A.** The Ratio was 0.76.

**Q.** And the Ratio [12]?
**A.** Its Ratio is 1.

**Q.** And the Ratio [13]?
**A.** The Ratio was 0.98.

**Q.** And the Ratio [14]?
**A.** Its Ratio is 0.71.

**Q.** What about the Ratio [15] of the same compound?
**A.** The Ratio was 0.83.

**Q.** And the Ratio [16]?
**A.** The Ratio was 0.67.

**Q.** And the Ratio [17]?
**A.** The Ratio was 0.46.

**Q.** What about the Ratio [18] of the same compound?
**A.** The Ratio was 0.55.

**Q.** What about the Ratio [19] of the same compound?
**A.** Its Ratio is 0.72.

**Q.** And the Ratio [20]?
**A.** Its Ratio is 0.37.

**Q.** And the Ratio [21]?
**A.** Its Ratio is 1.03.

**Q.** And the Ratio [22]?
**A.** The Ratio was 0.79.

**Q.** And the Ratio [23]?
**A.** The Ratio was 0.62.

**Q.** What about the Ratio [24] of the same compound?
**A.** Its Ratio is 0.82.

**Q.** What about the Ratio [25] of the same compound?
**A.** The Ratio was 0.95.

**Q.** And the Ratio [26]?
**A.** Its Ratio is 1.14.

**Q.** What does the source list for `CCN(C)S(=O)(=O)Nc1ccc(F)c(C(=O)c2c[nH]c3ncc(-c4ccc(Cl)cc4)cc23)c1F`?
**A.** pIC50 [1]: > 7.00; pKd [2]: 5.85; pKd [3]: 6.16; pIC50 [4]: > 6.00; inhibition (A-375): Active; inhibition (SW-620): inactive; inhibition [5]: Active; inhibition [6]: Active; Ratio [7]: 0.94; Ratio [8]: 0.73; Ratio [9]: 0.96; pEC50 [10]: < 5.00; Ratio [11]: 0.93; Ratio [12]: 1.27; Ratio [13]: 1.16; Ratio [14]: 0.37; Ratio [15]: 0.42; Ratio [16]: 0.36; Ratio [17]: 0.12; Ratio [18]: 0.23; Ratio [19]: 0.36; Ratio [20]: 0.3; Ratio [21]: 0.11; Ratio [22]: 0.3; Ratio [23]: 0.48; Ratio [24]: 0.41; Ratio [25]: 1.53; Ratio [26]: 1.22

**Q.** What does the source list for `Nc1ncnc2c1ncn2[C@@H]1O[C@H](COP(=O)(O)OP(=O)(O)OP(=O)(O)O)[C@@H](O)[C@H]1O`?
**A.** Ratio [7]: 0.64; Ratio [8]: 0.78; Ratio [9]: 0.97; Ratio [11]: 0.76; Ratio [12]: 0.75; Ratio [13]: 0.68; Ratio [14]: 0.62; Ratio [15]: 0.62; Ratio [16]: 0.75; Ratio [17]: 0.34; Ratio [18]: 0.54; Ratio [19]: 0.81; Ratio [20]: 1.16; Ratio [21]: 0.77; Ratio [22]: 0.72; Ratio [23]: 0.57; Ratio [24]: 0.76; Ratio [25]: 0.94; Ratio [26]: 0.95
